Patent US11103582B2, “Method to achieve extended expression of DNA infused into liver” (IMMUSOFT CORPORATION, priority 2012, dated 2021)

Tested on: Kupffer cells
Details: Dog #17: dexamethasone 1 mg/kg days −1, 0, 2, 4 then twice weekly + cyclophosphamide 10 mg/kg day 0 then weekly; no GdCl3; pKT2/CLP-cSEAP//PGK-SB100x into LHV
Experimental: Infusions of pKT2/clp-cSEAP//PGK-SB100x (FIG. 2) into the left hepatic vein were carried out as described in the text, collecting plasma samples before, during and after the infusion procedure and assaying for heat stable alkaline phosphatase activity.

SMILES	Time after which cSEAP expression was extinguished
O=P1(N(CCCl)CCCl)NCCCO1 (centres unmarked) [Cyclophosphamide]	about 4 weeks
C[C@@H]1C[C@H]2[C@@H]3CCC4=CC(=O)C=C[C@]4(C)[C@@]3(F)[C@@H](O)C[C@]2(C)[C@@]1(O)C(=O)CO [Dexamethasone]	about 4 weeks
